# Laboratory results taken from ChEMBL document CHEMBL1909046, “DrugMatrix in vitro pharmacology data”.
# How the values were obtained:
# [1] = molecular target: T1, Type-2 angiotensin II receptor (Homo sapiens, UniProt P50052); format: cell-based; conditions: cho-k1; further: in other assays of this panel Not Active means under 50% inhibition at 10 µM
# T1 sequence (P50052 whole entry): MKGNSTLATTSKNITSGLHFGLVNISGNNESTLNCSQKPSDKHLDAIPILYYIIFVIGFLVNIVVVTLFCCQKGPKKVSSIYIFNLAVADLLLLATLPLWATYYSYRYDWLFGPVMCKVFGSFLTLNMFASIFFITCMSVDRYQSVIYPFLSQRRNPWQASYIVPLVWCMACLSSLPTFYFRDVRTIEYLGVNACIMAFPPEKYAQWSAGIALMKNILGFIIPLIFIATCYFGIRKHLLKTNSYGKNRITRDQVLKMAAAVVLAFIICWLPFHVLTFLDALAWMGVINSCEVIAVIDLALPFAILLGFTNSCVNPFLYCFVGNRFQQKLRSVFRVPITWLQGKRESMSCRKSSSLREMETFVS
# [2] = DRUGMATRIX: Calcium Channel Type L, Dihydropyridine radioligand binding (ligand: [3H] Nitrendipine); format: cell membranes, Rattus norvegicus, Wistar, Cerebral cortex, Membrane; conditions: Not Active = under 50% inhibition at 10 µM
# [3] = molecular target: T2, Vasoactive intestinal polypeptide receptor 1 (Homo sapiens, UniProt P32241); format: cell membranes, Membrane; conditions: ht-29; further: in other assays of this panel Not Active means under 50% inhibition at 10 µM
# T2 sequence (P32241 whole entry): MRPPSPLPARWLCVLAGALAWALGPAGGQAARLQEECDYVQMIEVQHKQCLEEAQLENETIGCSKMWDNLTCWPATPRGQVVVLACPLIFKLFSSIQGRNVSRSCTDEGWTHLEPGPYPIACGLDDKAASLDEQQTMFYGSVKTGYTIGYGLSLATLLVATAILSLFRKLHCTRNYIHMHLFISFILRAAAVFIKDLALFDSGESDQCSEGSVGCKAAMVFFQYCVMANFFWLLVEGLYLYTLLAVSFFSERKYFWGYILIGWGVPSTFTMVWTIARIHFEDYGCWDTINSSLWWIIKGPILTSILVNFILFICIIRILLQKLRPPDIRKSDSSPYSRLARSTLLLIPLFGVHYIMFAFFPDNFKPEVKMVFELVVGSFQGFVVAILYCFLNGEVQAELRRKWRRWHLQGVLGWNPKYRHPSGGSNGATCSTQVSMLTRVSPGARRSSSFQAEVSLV
# [4] = molecular target: Prostaglandin G/H synthase 1 (Homo sapiens, UniProt P23219); experiment: biochemical; format: tissue-based, Platelet; conditions: platelet;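 further: inhibition of COX-1 enzyme activity, with arachidonic acid supplied as substrate; in other assays of this panel Not Active means under 50% inhibition at 10 µM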
# Sequence of Prostaglandin G/H synthase 1 (P23219 whole entry): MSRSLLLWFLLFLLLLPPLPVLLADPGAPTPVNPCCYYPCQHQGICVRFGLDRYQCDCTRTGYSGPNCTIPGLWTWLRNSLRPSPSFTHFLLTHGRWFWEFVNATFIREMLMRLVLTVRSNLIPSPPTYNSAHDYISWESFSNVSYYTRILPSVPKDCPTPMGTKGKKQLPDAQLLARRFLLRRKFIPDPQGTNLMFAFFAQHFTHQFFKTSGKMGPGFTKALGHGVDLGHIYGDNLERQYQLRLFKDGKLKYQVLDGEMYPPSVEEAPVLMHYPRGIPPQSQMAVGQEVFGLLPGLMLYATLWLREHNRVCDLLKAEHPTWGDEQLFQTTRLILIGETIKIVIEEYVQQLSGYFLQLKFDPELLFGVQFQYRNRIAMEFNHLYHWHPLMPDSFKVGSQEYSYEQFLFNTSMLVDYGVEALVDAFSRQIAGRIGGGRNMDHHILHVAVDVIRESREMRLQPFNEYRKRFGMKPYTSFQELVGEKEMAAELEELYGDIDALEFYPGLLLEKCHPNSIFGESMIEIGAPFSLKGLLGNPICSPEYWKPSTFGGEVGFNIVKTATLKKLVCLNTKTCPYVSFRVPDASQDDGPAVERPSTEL
# [5] = molecular target: T3, 3-hydroxy-3-methylglutaryl-coenzyme A reductase (Homo sapiens, UniProt P04035); parameters: species or system Escherichia coli;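 further: enzyme inhibition assay of HMG-CoA reductase using radiolabeled [14C]HMG-CoA as substrate; in other assays of this panel Not Active means under 50% inhibition at 10 µM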
# T3 sequence (P04035 whole entry): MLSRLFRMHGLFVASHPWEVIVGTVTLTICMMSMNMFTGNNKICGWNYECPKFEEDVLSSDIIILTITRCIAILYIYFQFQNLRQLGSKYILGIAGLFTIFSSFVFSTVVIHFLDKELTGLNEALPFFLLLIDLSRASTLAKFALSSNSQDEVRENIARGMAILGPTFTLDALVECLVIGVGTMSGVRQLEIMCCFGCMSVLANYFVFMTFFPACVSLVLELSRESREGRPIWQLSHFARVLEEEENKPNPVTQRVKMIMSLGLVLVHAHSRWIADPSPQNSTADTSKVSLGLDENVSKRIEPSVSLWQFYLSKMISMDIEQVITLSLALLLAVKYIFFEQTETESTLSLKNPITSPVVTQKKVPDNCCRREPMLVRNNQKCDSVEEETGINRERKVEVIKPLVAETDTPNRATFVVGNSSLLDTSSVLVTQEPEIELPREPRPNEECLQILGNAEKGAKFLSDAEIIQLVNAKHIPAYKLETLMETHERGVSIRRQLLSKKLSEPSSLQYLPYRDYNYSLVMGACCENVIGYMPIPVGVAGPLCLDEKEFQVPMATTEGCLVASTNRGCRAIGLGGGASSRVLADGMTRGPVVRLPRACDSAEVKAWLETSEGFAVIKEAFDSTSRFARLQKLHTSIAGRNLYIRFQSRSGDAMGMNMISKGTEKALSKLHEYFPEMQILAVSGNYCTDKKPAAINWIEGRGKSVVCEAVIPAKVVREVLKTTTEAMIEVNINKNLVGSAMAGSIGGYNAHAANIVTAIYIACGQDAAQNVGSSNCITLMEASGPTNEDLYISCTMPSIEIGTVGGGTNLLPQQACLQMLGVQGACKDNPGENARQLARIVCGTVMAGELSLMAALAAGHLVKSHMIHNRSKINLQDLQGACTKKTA
# Nitric oxide synthase 1 = Nitric oxide synthase 1 (Rattus norvegicus, UniProt P29476); format: tissue-based, Cerebellum; further: in other assays of this panel Not Active means under 50% inhibition at 10 µM
# Sequence of Nitric oxide synthase 1 (P29476 whole entry): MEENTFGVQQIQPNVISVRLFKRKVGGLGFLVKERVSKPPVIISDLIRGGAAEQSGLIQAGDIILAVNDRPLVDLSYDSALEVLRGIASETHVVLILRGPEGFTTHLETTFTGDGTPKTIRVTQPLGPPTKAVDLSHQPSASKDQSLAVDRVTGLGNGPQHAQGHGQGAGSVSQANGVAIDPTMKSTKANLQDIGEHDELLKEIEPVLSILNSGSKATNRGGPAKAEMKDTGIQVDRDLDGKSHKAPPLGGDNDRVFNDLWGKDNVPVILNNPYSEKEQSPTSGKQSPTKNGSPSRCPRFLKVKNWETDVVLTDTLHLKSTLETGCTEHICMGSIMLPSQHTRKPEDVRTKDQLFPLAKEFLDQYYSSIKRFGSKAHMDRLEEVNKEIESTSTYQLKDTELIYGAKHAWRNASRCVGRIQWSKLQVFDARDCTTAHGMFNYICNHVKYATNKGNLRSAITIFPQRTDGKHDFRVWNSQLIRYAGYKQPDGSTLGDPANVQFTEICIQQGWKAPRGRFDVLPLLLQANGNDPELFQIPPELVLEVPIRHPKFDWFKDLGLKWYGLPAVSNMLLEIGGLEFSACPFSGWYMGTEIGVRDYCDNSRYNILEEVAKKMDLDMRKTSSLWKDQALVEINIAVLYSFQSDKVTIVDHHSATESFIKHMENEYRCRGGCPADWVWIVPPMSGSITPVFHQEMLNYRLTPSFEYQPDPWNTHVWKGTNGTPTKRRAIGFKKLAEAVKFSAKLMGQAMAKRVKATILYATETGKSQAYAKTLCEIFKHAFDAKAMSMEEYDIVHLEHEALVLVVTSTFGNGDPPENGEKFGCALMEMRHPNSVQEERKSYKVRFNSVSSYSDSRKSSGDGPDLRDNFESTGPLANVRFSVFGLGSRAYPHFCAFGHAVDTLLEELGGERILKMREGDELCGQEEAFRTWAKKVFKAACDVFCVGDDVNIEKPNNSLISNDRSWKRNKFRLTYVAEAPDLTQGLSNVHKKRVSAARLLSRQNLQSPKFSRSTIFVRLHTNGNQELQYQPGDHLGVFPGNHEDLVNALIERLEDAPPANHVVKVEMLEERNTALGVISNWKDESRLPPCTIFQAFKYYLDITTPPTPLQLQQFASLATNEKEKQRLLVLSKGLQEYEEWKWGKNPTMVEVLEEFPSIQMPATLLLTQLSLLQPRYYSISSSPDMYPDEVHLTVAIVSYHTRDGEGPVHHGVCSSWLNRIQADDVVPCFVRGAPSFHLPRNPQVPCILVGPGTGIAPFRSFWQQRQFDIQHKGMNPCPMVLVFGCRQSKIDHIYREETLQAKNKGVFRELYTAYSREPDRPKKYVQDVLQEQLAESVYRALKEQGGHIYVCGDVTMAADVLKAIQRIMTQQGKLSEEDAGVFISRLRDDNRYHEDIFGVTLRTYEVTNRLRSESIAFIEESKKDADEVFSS
# [6] = molecular target: Matrix metalloproteinase-9 (Homo sapiens, UniProt P14780); experiment: biochemical; format: cell-based
# Sequence of Matrix metalloproteinase-9 (P14780 whole entry): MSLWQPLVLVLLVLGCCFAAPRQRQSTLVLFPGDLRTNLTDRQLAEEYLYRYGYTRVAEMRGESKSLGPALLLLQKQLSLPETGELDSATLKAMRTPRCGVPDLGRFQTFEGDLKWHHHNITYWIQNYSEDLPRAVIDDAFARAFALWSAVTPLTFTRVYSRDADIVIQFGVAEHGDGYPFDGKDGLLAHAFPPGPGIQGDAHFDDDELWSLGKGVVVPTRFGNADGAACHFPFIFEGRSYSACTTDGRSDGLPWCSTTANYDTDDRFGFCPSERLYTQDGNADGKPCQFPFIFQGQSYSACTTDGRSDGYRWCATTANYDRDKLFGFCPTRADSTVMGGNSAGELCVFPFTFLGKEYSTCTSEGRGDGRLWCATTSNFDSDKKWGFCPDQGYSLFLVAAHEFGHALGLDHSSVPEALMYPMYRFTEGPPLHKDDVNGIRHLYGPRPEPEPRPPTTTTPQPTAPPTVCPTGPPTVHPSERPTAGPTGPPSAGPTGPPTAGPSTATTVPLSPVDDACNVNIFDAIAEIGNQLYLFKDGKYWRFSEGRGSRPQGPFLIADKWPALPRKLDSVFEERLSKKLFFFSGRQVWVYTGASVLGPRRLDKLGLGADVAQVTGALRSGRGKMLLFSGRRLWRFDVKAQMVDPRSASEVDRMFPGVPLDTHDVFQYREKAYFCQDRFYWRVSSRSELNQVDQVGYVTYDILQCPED
# [7] = molecular target: Protein kinase C alpha type (Homo sapiens, UniProt P17252); format: cell-based; conditions: sf9
Compound,IC50 [1],Ki [1],IC50 [2],Ki [2],IC50 [3],Ki [3],IC50 [4],Ki [4],IC50 [5],Ki [5],IC50 (Nitric oxide synthase 1),Ki (Nitric oxide synthase 1),IC50 [6],Ki [6],IC50 [7],Ki [7],IC50 ([2]; read-out: IC50) [nM],Ki ([2]; read-out: Ki) [nM]
MANGANESE CHLORIDE ANHYDROUS,Not Active,Not Active,Not Active,Not Active,Not Active,Not Active,Not Active,Not Active,Not Active,Not Active,Not Active,Not Active,Not Active,Not Active,Not Active,Not Active,,
O.O.O.O.O.O.[Cl-].[Cl-].[Sr+2] [STRONTIUM CHLORIDE HEXAHYDRATE],Not Active,,Not Active,Not Active,Not Active,,Not Active,,Not Active,,Not Active,,Not Active,,Not Active,,,
CNC1(c2ccccc2Cl)CCCCC1=O (configuration not stated) [KETAMINE],Not Active,,Not Active,Not Active,Not Active,,Not Active,,Not Active,,Not Active,,Not Active,,Not Active,,,
CCN(CC)CC(=O)Nc1c(C)cccc1C [LIDOCAINE],Not Active,,Not Active,Not Active,Not Active,,Not Active,,Not Active,,Not Active,,Not Active,,Not Active,,,
Nc1cc(N2CCCCC2)nc(N)[n+]1[O-] [MINOXIDIL],Not Active,,Not Active,Not Active,Not Active,,Not Active,,Not Active,,Not Active,,Not Active,,Not Active,,,
COc1c2occc2cc2ccc(=O)oc12 [METHOXSALEN],Not Active,,Not Active,Not Active,Not Active,,Not Active,,Not Active,,Not Active,,Not Active,,Not Active,,,
Cc1c(C)c2c(c(C)c1O)CCC(C)(CN1CCN(c3cc(N4CCCC4)nc(N4CCCC4)n3)CC1)O2 (configuration not stated),Not Active,,,,Not Active,,Not Active,,Not Active,,Not Active,,Not Active,,Not Active,,1660,1070
CS(=O)(=O)c1ccc([C@@H](O)[C@@H](CO)NC(=O)C(Cl)Cl)cc1 [THIAMPHENICOL],Not Active,,Not Active,Not Active,Not Active,,Not Active,,Not Active,,Not Active,,Not Active,,Not Active,,,
Clc1ccccc1CN1CCc2sccc2C1 [TICLOPIDINE],Not Active,,Not Active,Not Active,Not Active,,Not Active,,Not Active,,Not Active,,Not Active,,Not Active,,,
CCN1CCC[C@H]1CNC(=O)c1cc(S(N)(=O)=O)ccc1OC [LEVOSULPIRIDE],Not Active,,Not Active,Not Active,Not Active,,Not Active,,Not Active,,Not Active,,Not Active,,Not Active,,,
